According to patent US9227972B2, “Aliphatic spirolactam CGRP receptor antagonists” (Merck Sharp & Dohme Corp., priority 2012, dated 2016):

Experiments:
[1] = biological target: T1, recombinant human CL receptor/RAMP1 (Homo sapiens, UniProt O60894+Q16602); experiment: Recombinant receptor binding assay (125I-hCGRP); conditions: membranes of HEK 293 cells expressing human CL receptor/RAMP1, 10 pM 125I-hCGRP, 3 h room temperature
T1 construct: expressed in transfected cells
Method: (§1) RECOMBINANT RECEPTOR: Human CL receptor (Genbank accession number L76380) was subcloned into the expression vector pIREShyg2 (BD Biosciences Clontech) as a 5′NheI and 3′ PmeI fragment. Human RAMP1 (Genbank accession number AJ001014) was subcloned into the expression vector pIRESpuro2 (BD Biosciences Clontech) as a 5′NheI and 3′NotI fragment. HEK 293 cells (human embryonic kidney cells; ATCC #CRL-1573) were cultured in DMEM with 4.5 g/L glucose, 1 mM sodium pyruvate and 2 mM glutamine supplemented with 10% fetal bovine serum (FBS), 100 units/mL penicillin and 100 μg/mL streptomycin, and maintained at 37° C. and 95% humidity. Cells were subcultured by treatment with 0.25% trypsin with 0.1% EDTA in HBSS. Stable cell line generation was accomplished by co-transfecting 10 μg of DNA with 30 μg Lipofectamine 2000 (Invitrogen) in 75 cm^2 flasks. CL receptor and RAMP1 expression constructs were co-transfected in equal amounts. […]
[formula] Where Y is observed CPM bound, Ymax is total bound counts, Ymin is non specific bound counts, (Ymax−Ymin) is specific bound counts, % Imax is the maximum percent inhibition, % I min is the minimum percent inhibition, radiolabel is the probe, and the Kd is the apparent dissociation constant for the radioligand for the receptor as determined by hot saturation experiments.

[2] = biological target: T1, recombinant human CL receptor/RAMP1; experiment: Recombinant receptor functional assay (cAMP, HTRF); type: cell-based; conditions: HEK 293 cells, 1.2 nM human α-CGRP, cAMP determination
Method: as §1
RECOMBINANT RECEPTOR FUNCTIONAL ASSAY: Cells were resuspended in DMEM/F12 (Hyclone) supplemented with 1 g/L BSA and 300 μM isobutyl-methylxanthine. […] Raw data were transformed into concentration of cAMP using a standard curve then dose response curves were plotted and inflection point (IP) values were determined.

T1 sequence (Q16602 23-461): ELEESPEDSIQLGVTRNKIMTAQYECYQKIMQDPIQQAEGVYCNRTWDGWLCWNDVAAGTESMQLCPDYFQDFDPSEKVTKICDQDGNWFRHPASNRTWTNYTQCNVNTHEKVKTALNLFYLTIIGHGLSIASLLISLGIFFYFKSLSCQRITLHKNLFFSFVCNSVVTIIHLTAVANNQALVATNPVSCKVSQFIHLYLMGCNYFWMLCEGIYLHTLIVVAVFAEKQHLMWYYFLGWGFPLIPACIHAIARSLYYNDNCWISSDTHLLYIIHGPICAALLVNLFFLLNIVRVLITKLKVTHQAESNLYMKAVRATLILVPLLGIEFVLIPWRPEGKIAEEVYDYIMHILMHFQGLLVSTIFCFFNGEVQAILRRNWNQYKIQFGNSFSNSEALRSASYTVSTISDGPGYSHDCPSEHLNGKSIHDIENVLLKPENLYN
T1 sequence (O60894 27-148): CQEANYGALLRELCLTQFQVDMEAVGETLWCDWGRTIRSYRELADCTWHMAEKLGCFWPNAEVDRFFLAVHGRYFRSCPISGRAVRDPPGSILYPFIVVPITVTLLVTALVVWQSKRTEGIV

| Ki [1] [µM] | IC50 [2] [µM] | Compound |
| --- | --- | --- |
| 0.409 | – | C[C@@H]1[C@H](c2ccccc2)C[C@H](NCC(F)(F)c2cnc3c(c2)C[C@@]2(C3)C(=O)Nc3ncccc32)C(=O)N1CC(F)(F)F [Example 2, (6S)-3-(1,1-Difluoro-2-(((3S,5S,6R)-6-methyl-2-oxo-5-phenyl-1-(2,2,2-trifluoroethyl)piperidin-3-yl)amino)ethyl)-5,7-dihydrospiro[cyclopenta[b]pyridine-6,3′-pyrrolo[2,3-b]pyridin]-2′(1′H)-one] |
| – | 0.0072 | CC1C(c2cc(F)cc(F)c2F)CC(CC=Cc2cnc3c(c2)C[C@@]2(C3)C(=O)Nc3ncccc32)C(=O)N1CC(F)(F)F (stereo partly drawn) [Example 1, (3′S)-3-(3-(6-Methyl-2-oxo-1-(2,2,2-trifluoroethyl)-5-(2,3,5-trifluorophenyl)piperidin-3-yl)prop-1-en-1-yl)-5,7-dihydrospiro[cyclopenta[b]pyridine-6,3′-pyrrolo[2,3-b]pyridin]-2′(1′H)-one] |
| – | 3.72 | C[C@@H]1[C@H](c2ccccc2)C[C@H](NS(=O)(=O)c2cnc3c(c2)C[C@@]2(C3)C(=O)Nc3ncccc32)C(=O)N1CC(F)(F)F [Example 3, (6S)—N-[(3S,5S,6R)-6-Methyl-2-oxo-5-phenyl-1-(2,2,2-trifluoroethyl)piperidin-3-yl]-2′-oxo-1′,2′,5,7-tetrahydrospiro[cyclopenta[b]pyridine-6,3′-pyrrolo[2,3-b]pyridine]-3-sulfonamide] |
